Measurements from patent publication US20230399611A1, “PRODUCTION METHOD FOR STAGE 5 NEURONS” (Ricoh Company, Ltd., priority 2022, published 2023).

Columns and labels:
[1] = tested on: human iPSC-derived neurons; experiment: Population firing rate of iPSC-derived neurons on high-density microelectrode array (HD-MEA); assay type: cell-based; settings: added at 8 weeks after initiation of culture with increasing concentration; 1,024 electrodes per well; 10-minute recording per concentration
Description: Electrophysiological responses of the human iPSC-derived neurons were analyzed by using a high-density microelectrode array system (HD-MEA, MaxWell Biosystems AG).
Human iPSC-derived neurons (product name “Quick-Neuron (trademark) Excitatory-Human iPSC-derived Neurons”, ELIXIRGEN SCIENTIFIC, INC.) were cultured in the same manner as in Experimental Example 1, except that the human iPSC-derived neurons were seeded on electrodes of the high-density microelectrode array (HD-MEA) at a cell density of 100,000 cells/well, and the local electric field potential was measured over time.
4-Aminopyridine (4-AP) serving as a potassium channel inhibitor and D-2-Amino-5-phosphonopentanoic acid (D-AP5) serving ax an NMDA receptor inhibitor were added in the culture medium of iPSC-derived neurons at 8 weeks after the initiation of culture while increasing each concentration, and population firing rate histograms were recorded with 1,024 electrodes per well. One-minute stabilization and 10-minute recording were performed for each concentration. Finally, the iPSC-derived neurons were washed with three medium replacements and left for one day, and it was confirmed that the effect of each drug had disappeared.

[2] = tested on: Human iPSC-derived mature stage 5 neurons; experiment: Localization change of drebrin by immunostaining after glutamic acid treatment; assay type: cell-based; settings: 100 μM for 10 min; immunostaining of MAP2, drebrin, nuclei
Description: Human iPSC-derived mature stage 5 neurons were treated with 100 μM glutamic acid for 10 minutes and then immunostained to examine the localization change of drebrin. For comparison, a sample immunostained without glutamic acid treatment was also prepared.

Row | SMILES | response of population firing rate to the drug [1] | localization change of drebrin [2]
1 | Nc1ccncc1 [4-AP, 4-Aminopyridine] | dose-dependent responses | 
2 | N[C@H](CCCP(=O)(O)O)C(=O)O [D-AP5, D-2-Amino-5-phosphonopentanoic acid] | dose-dependent responses | 
3 | N[C@@H](CCC(=O)O)C(=O)O [glutamate, glutamic acid] |  | drebrin was effluxed from clusters in spines
